Data as given in patent US20230365537A1, “POLO LIKE KINASE 4 INHIBITORS” (ORIC Pharmaceuticals, Inc., priority 2021, published 2023).
Each block holds one compound with its values, some of them ahead of it.

Legend:
human recombinant PLK4 = human recombinant PLK4 (Homo sapiens (Human), UniProt O00444); experiment: PLK4 Biochemical Assay (ADP-Glo); settings: 0.5 nM PLK4, 8.0 µM ATP, 4.7 µM MBP, 6 hours at RT
Summary of the method: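 Luminescent ADP-Glo detection quantified ADP production, with ATP depletion for 40 min and detection for 30 min at room temperature. Compound and PLK4 (1.0 nM stock addition) were preincubated 15 min in HEPES pH 7.5 buffer containing MgCl2, EGTA, DTT, Brij-35 and BSA. IC50 values were obtained by four-parameter nonlinear regression.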

CHP-134 cells = experiment: CHP134 CellTiter-Glo (CTG) Assay; assay type: cell-based; settings: Homo sapiens, CHP-134, 120 h, 5 days, viable cells by CellTiter-Glo
Summary of the method: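 Nine-point 1:3 dilution series, diluted into growth media, added in quadruplicate to CHP-134 cells plated 16 h earlier at 200 cells/well.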

[1] = target: human recombinant Aurora A (Homo sapiens (Human), UniProt O14965); experiment: Aurora A Kinase Biochemical Assay (ADP-Glo); settings: ratio of Aurora A IC50 to PLK4 IC50 (selectivity)
[2] = target: human recombinant Aurora B (Homo sapiens (Human), UniProt Q96GD4); experiment: Aurora B Kinase Biochemical Assay (ADP-Glo); settings: ratio of Aurora B IC50 to PLK4 IC50 (selectivity)
Summary of the method: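 IC50 derived by four-parameter nonlinear fit of ADP-Glo luminescence (ADP produced). Compound was preincubated 15 min at RT with 20 nM recombinant human Aurora B, in 50 mM HEPES pH 7.5, 10 mM MgCl2, 1 mM EGTA, 1 mM DTT, 0.01% Brij-35/BSA.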

Sequence of human recombinant Aurora A (O14965 whole entry): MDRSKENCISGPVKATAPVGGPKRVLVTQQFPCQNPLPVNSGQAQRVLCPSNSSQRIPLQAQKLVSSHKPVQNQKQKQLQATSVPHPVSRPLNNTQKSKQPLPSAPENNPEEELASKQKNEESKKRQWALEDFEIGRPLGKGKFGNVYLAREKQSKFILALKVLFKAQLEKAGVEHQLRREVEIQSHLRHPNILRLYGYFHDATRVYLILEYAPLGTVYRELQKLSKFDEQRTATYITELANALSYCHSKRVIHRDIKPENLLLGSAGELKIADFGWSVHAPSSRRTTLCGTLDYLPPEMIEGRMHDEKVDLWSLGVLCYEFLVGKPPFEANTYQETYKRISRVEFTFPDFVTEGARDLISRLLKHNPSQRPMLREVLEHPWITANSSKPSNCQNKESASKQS
Sequence of human recombinant PLK4 (O00444 whole entry): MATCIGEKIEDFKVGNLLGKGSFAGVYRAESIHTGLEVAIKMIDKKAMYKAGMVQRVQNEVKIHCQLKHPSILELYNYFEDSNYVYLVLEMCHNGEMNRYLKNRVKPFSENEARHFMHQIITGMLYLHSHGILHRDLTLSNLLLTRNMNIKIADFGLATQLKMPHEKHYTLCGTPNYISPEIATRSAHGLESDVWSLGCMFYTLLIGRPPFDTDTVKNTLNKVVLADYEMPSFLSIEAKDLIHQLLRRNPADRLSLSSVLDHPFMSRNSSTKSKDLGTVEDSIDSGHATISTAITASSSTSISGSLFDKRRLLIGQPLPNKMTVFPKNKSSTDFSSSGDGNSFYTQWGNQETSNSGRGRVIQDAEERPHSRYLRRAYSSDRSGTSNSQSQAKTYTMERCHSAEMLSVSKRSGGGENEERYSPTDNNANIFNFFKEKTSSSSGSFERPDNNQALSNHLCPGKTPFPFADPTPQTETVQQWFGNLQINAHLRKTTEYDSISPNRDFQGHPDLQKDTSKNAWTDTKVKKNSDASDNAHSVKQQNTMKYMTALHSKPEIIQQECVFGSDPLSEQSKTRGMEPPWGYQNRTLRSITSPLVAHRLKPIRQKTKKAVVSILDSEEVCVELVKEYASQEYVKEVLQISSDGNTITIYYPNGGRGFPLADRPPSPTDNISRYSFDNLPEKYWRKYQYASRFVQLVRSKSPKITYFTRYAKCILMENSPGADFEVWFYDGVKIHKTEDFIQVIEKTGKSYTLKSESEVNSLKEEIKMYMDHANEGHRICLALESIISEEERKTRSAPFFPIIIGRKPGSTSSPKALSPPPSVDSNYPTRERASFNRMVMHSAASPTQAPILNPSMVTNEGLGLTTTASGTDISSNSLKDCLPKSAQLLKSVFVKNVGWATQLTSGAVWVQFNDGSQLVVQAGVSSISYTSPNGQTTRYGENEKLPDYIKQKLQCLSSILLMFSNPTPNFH
Sequence of human recombinant Aurora B (Q96GD4 whole entry): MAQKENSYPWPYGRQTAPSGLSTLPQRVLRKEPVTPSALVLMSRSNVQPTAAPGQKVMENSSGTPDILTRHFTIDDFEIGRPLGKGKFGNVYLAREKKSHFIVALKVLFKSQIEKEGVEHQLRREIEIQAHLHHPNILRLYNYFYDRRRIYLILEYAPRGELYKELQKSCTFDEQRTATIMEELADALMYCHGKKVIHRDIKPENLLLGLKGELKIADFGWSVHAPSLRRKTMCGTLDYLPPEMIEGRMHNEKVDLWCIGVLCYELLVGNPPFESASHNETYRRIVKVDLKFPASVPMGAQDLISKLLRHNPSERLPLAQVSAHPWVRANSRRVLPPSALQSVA

SMILES: COc1ccc2c(c1)[C@]1(C[C@H]1c1ccc3c(Nc4ncc(S(C)(=O)=O)cc4Cl)n[nH]c3c1)C(=O)N2 [Example 247, (1R,2S)-2-(3-{[3-chloro-5-(methanesulfonyl)pyridin-2-yl]amino}-1H-indazol-6-yl)-5′-methoxyspiro[cyclopropane-1,3′-indol]-2′(1′H)-one]
IC50 (human recombinant PLK4): 3.73 nM
IC50 (CHP-134 cells): 1010 nM
[Aurora A IC50 (nM)]/[PLK4 IC50 (nM)] [1]: 1434.9223
[Aurora B IC50 (nM)]/[PLK4 IC50 (nM)] [2]: 423.6743

SMILES: COc1ccc2c(c1)[C@]1(C[C@H]1c1ccc3c(Nc4ncc(S(=O)(=O)C(C)C)cc4OC)n[nH]c3c1)C(=O)N2 [Example 248, (1R,2S)-5′-Methoxy-2-(3-{[3-methoxy-5-(propane-2-sulfonyl)pyridin-2-yl]amino}-1H-indazol-6-yl)spiro[cyclopropane-1,3′-indol]-2′(1′H)-one]
IC50 (human recombinant PLK4): 1.24 nM
IC50 (CHP-134 cells): 120 nM
[Aurora A IC50 (nM)]/[PLK4 IC50 (nM)] [1]: 683.4543
[Aurora B IC50 (nM)]/[PLK4 IC50 (nM)] [2]: 206.5375

SMILES: COc1ccc2c(c1)[C@]1(C[C@H]1c1ccc3c(Nc4ccc(C(=O)N(C)C)nc4Cl)n[nH]c3c1)C(=O)N2 [Example 251, 6-chloro-5-({6-[(1R,2S)-5′-methoxy-2′-oxo-1′,2′-dihydrospiro[cyclopropane-1,3′-indol]-2-yl]-1H-indazol-3-yl}amino)-N,N-dimethylpyridine-2-carboxamide]
IC50 (human recombinant PLK4): 1.33 nM
IC50 (CHP-134 cells): 287 nM
[Aurora A IC50 (nM)]/[PLK4 IC50 (nM)] [1]: 1734.2342
[Aurora B IC50 (nM)]/[PLK4 IC50 (nM)] [2]: 268.6936

SMILES: COc1ccc2c(c1)[C@]1(C[C@H]1c1ccc3c(Nc4ncc(C5CS(=O)(=O)C5)nc4OC)n[nH]c3c1)C(=O)N2 [Example 254, 3-[6-methoxy-5-({6-[(1R,2S)-5′-methoxy-2′-oxo-1′,2′-dihydrospiro[cyclopropane-1,3′-indol]-2-yl]-1H-indazol-3-yl}amino)pyrazin-2-yl]-1λ6-thietane-1,1-dione]
IC50 (human recombinant PLK4): 5.19 nM
IC50 (CHP-134 cells): 2160 nM
[Aurora A IC50 (nM)]/[PLK4 IC50 (nM)] [1]: 297.6878
[Aurora B IC50 (nM)]/[PLK4 IC50 (nM)] [2]: 96.18

SMILES: COc1ccc2c(c1)[C@]1(C[C@H]1c1ccc3c(Nc4ncc(S(=O)(=O)N5CCOCC5)cc4OC)n[nH]c3c1)C(=O)N2 [Example 255]
IC50 (human recombinant PLK4): 1.16 nM
IC50 (CHP-134 cells): 380 nM
[Aurora A IC50 (nM)]/[PLK4 IC50 (nM)] [1]: 840.1202
[Aurora B IC50 (nM)]/[PLK4 IC50 (nM)] [2]: 566.4948

SMILES: CCP(=O)(CC)c1ccc(Nc2n[nH]c3cc([C@@H]4C[C@@]45C(=O)Nc4ccc(OC)cc45)ccc23)c(OC)n1 [Example 257, (1R,2S)-2-(3-{[6-(diethylphosphoryl)-2-methoxypyridin-3-yl]amino}-1H-indazol-6-yl)-5′-methoxyspiro[cyclopropane-1,3′-indol]-2′(1′H)-one]
IC50 (human recombinant PLK4): 3.91 nM
IC50 (CHP-134 cells): 1590 nM
[Aurora A IC50 (nM)]/[PLK4 IC50 (nM)] [1]: 1259.8465
[Aurora B IC50 (nM)]/[PLK4 IC50 (nM)] [2]: 324.5524

SMILES: COc1ccc2c(c1)[C@]1(C[C@H]1c1ccc3c(Nc4ncc(S(=O)(=O)C5CC5)cc4OC)n[nH]c3c1)C(=O)N2 [Example 258, (1R,2S)-2-(3-{[5-(Cyclopropanesulfonyl)-3-methoxypyridin-2-yl]amino}-1H-indazol-6-yl)-5′-methoxyspiro[cyclopropane-1,3′-indol]-2′(1′H)-one]
IC50 (human recombinant PLK4): 1.41 nM
IC50 (CHP-134 cells): 168 nM
[Aurora A IC50 (nM)]/[PLK4 IC50 (nM)] [1]: 1100.4954
[Aurora B IC50 (nM)]/[PLK4 IC50 (nM)] [2]: 464.7558

SMILES: COc1ccc2c(c1)[C@]1(C[C@H]1c1ccc3c(Nc4ncc(S(=O)(=O)C5CCOCC5)cc4OC)n[nH]c3c1)C(=O)N2 [Example 259, (1R,2S)-5′-methoxy-2-(3-{[3-methoxy-5-(oxane-4-sulfonyl)pyridin-2-yl]amino}-1H-indazol-6-yl)spiro[cyclopropane-1,3′-indol]-2′(1′H)-one]
IC50 (human recombinant PLK4): 0.971 nM
IC50 (CHP-134 cells): 900 nM
[Aurora A IC50 (nM)]/[PLK4 IC50 (nM)] [1]: 1294.8084
[Aurora B IC50 (nM)]/[PLK4 IC50 (nM)] [2]: 835.2904

SMILES: CCS(=O)(=O)c1cc(OC)c(Nc2n[nH]c3cc([C@@H]4C[C@@]45C(=O)Nc4ccc(OC)cc45)ccc23)cn1 [Example 262, (1R,2S)-2-(3-{[6-(ethanesulfonyl)-4-methoxypyridin-3-yl]amino}-1H-indazol-6-yl)-5′-methoxyspiro[cyclopropane-1,3′-indol]-2′(1′H)-one]
IC50 (human recombinant PLK4): 1.39 nM
IC50 (CHP-134 cells): 507 nM
[Aurora A IC50 (nM)]/[PLK4 IC50 (nM)] [1]: 3488.1209
[Aurora B IC50 (nM)]/[PLK4 IC50 (nM)] [2]: 526.7

SMILES: COc1ccc2c(c1)[C@]1(C[C@H]1c1ccc3c(Nc4cc5c(cc4OC)C(=O)N(C)C5)n[nH]c3c1)C(=O)N2 [Example 265, (1R,2S)-5′-methoxy-2-{3-[(6-methoxy-2-methyl-1-oxo-2,3-dihydro-1H-isoindol-5-yl)amino]-1H-indazol-6-yl)spiro[cyclopropane-1,3′-indol]-2′(1′H)-one]
IC50 (human recombinant PLK4): 1.98 nM
IC50 (CHP-134 cells): 1070 nM
[Aurora A IC50 (nM)]/[PLK4 IC50 (nM)] [1]: 686
[Aurora B IC50 (nM)]/[PLK4 IC50 (nM)] [2]: 725.3912

SMILES: COc1ccc2c(c1)[C@]1(C[C@H]1c1ccc3c(Nc4ccc5c(c4OC)CN(C)C5=O)n[nH]c3c1)C(=O)N2 [Example 266, (1R,2S)-5′-methoxy-2-{3-[(4-methoxy-2-methyl-1-oxo-2,3-dihydro-1H-isoindol-5-yl)amino]-1H-indazol-6-yl}spiro[cyclopropane-1,3′-indol]-2′(1′H)-one]
IC50 (human recombinant PLK4): 2.34 nM
IC50 (CHP-134 cells): 792 nM
[Aurora A IC50 (nM)]/[PLK4 IC50 (nM)] [1]: 723.9761
[Aurora B IC50 (nM)]/[PLK4 IC50 (nM)] [2]: 154.9914

SMILES: COc1ccc2c(c1)[C@]1(C[C@H]1c1ccc3c(Nc4ncc(S(=O)(=O)N5CCCO5)cc4OC)n[nH]c3c1)C(=O)N2 [Example 267, (1R,2S)-5′-methoxy-2-(3-{[3-methoxy-5-(1,2-oxazolidine-2-sulfonyl)pyridin-2-yl]amino}-1H-indazol-6-yl)spiro[cyclopropane-1,3′-indol]-2′(1′H)-one]
IC50 (human recombinant PLK4): 1.57 nM
IC50 (CHP-134 cells): 325 nM
[Aurora A IC50 (nM)]/[PLK4 IC50 (nM)] [1]: 789.0376
[Aurora B IC50 (nM)]/[PLK4 IC50 (nM)] [2]: 406.8833

Stronger by IC50 (human recombinant PLK4), values ahead:

IC50 (human recombinant PLK4): 0.89 nM
[Aurora A IC50 (nM)]/[PLK4 IC50 (nM)] [1]: 191.7977
[Aurora B IC50 (nM)]/[PLK4 IC50 (nM)] [2]: 138.7640
SMILES: COc1ccc2c(c1)[C@]1(C[C@H]1c1ccc3c(Nc4ncc(S(=O)(=O)NC5(C)COC5)cc4OC)n[nH]c3c1)C(=O)N2 [Example 269, 5-methoxy-6-({6-[(1R,2S)-5′-methoxy-2′-oxo-1′,2′-dihydrospiro[cyclopropane-1,3′-indol]-2-yl]-1H-indazol-3-yl}amino)-N-(3-methyloxetan-3-yl)pyridine-3-sulfonamide]
IC50 (CHP-134 cells): 1350 nM

IC50 (human recombinant PLK4): 0.874 nM
[Aurora A IC50 (nM)]/[PLK4 IC50 (nM)] [1]: 1159
[Aurora B IC50 (nM)]/[PLK4 IC50 (nM)] [2]: 769.9084
SMILES: COc1ccc2c(c1)[C@]1(C[C@H]1c1ccc3c(Nc4ncc(S(=O)(=O)N5CCC5)cc4OC)n[nH]c3c1)C(=O)N2 [Example 268, (1R,2S)-2-(3-{[5-(azetidine-1-sulfonyl)-3-methoxypyridin-2-yl]amino}-1H-indaxol-6-yl)-5′-methoxyspiro[cyclopropane-1,3′-indol]-2′(1′H)-one]
IC50 (CHP-134 cells): 124 nM

IC50 (human recombinant PLK4): 0.785 nM
[Aurora A IC50 (nM)]/[PLK4 IC50 (nM)] [1]: 307.8980
[Aurora B IC50 (nM)]/[PLK4 IC50 (nM)] [2]: 66.6751
SMILES: COc1ccc2c(c1)[C@]1(C[C@H]1c1ccc3c(Nc4ncc(C(=O)N5CCOCC5)cc4OC)n[nH]c3c1)C(=O)N2 [Example 264, (1R,2S)-5′-methoxy-2-(3-{[3-methoxy-5-(morpholine-4-carbonyl)pyridin-2-yl]amino}-1H-indazol-6-yl)spiro[cyclopropane-1,3′-indol]-2′(1′H)-one]
IC50 (CHP-134 cells): 860 nM

IC50 (human recombinant PLK4): 0.65 nM
[Aurora A IC50 (nM)]/[PLK4 IC50 (nM)] [1]: 1133.6923
[Aurora B IC50 (nM)]/[PLK4 IC50 (nM)] [2]: 181.6923
SMILES: COc1ccc2c(c1)[C@]1(C[C@H]1c1ccc3c(Nc4ncc(C(=O)N5CCC5)cc4OC)n[nH]c3c1)C(=O)N2 [Example 263, (1R,2S)-2-(3-{[5-(azetidine-1-carbonyl)-3-methoxypyridin-2-yl]amino}-1H-indazol-6-yl)-5′-methoxyspiro[cyclopropane-1,3′-indol]-2′(1′H)-one]
IC50 (CHP-134 cells): 599 nM

IC50 (human recombinant PLK4): 0.65 nM
[Aurora A IC50 (nM)]/[PLK4 IC50 (nM)] [1]: 1143.4287
[Aurora B IC50 (nM)]/[PLK4 IC50 (nM)] [2]: 1153
SMILES: COc1ccc2c(c1)[C@]1(C[C@H]1c1ccc3c(Nc4ncc(S(=O)(=O)N5CC6CCC(C5)O6)cc4OC)n[nH]c3c1)C(=O)N2 [Example 256, (1R,2S)-5′-methoxy-2-(3-{[3-methoxy-5-(8-oxa-3-azabicyclo[3.2.1]octane-3-sulfonyl)pyridin-2-yl]amino}-1H-indazol-6-yl)spiro[cyclopropane-1,3′-indol]-2′(1′H)-one]
IC50 (CHP-134 cells): 310 nM

IC50 (human recombinant PLK4): 0.564 nM
[Aurora A IC50 (nM)]/[PLK4 IC50 (nM)] [1]: 473.6
[Aurora B IC50 (nM)]/[PLK4 IC50 (nM)] [2]: 1790.7801
SMILES: COc1ccc2c(c1)[C@]1(C[C@H]1c1ccc3c(Nc4ncc(S(=O)(=O)N(C)C5(C)COC5)cc4OC)n[nH]c3c1)C(=O)N2 [Example 270, 5-methoxy-6-({6-[(1R,2S)-5′-methoxy-2′-oxo-1′,2′-dihydrospiro[cyclopropane-1,3′-indol]-2-yl]-1H-indazol-3-yl}amino)-N-methyl-N-(3-methyloxetan-3-yl)pyridine-3-sulfonamide]
IC50 (CHP-134 cells): 269 nM
